Results from article PMC10229121, “An acetylation-mediated chromatin switch governs H3K4 methylation read-write capability” (eLife, 2023).

Test system: histone H3.1 modifications in HEK-293 cells
Assay: Middle-down mass spectrometry of histone H3.1 from HEK-293 cells ± KDAC inhibition (H3K9 methylation, {K9ac, K14ac, K18ac} proteoforms, H3K4 methylation)
Format: cell-based
Conditions: for 3ac including {K9ac, K14ac, K18ac} / 4ac including {K9ac, K14ac, K18ac} / 5ac including {K9ac, K14ac, K18ac}: HEK-293, H3.1 butyrate treated; for H3K9me0 / H3K9me1 / H3K9me2 / H3K9me3: HEK-293, butyrate treated
Procedure: Figure 3. […] (A) Occupancy of H3K4 methyl states (me0-1-2-3) within each H3 acetyl state (0ac to 5ac) in asynchronous MCF-7 cells. (B) Occupancy of H3K4 methyl states within each H3 acetyl state after butyrate treatment (60 min). Asterisks represent p-values <0.05. […] Each spectrum is an average of MS2 spectra of the indicated H3 acetyl states after 60 min of butyrate treatment. K4 occupancy stoichiometry is directly correlated with H3 acetylation state and the targeted MS approach provides excellent signal-to-noise for confident quantitation. […] See Methods for further information on data acquisition and analysis. All data were collected in biological triplicate with error bars representing SEM. Figure 3—figure supplement 1. H3 acetylation states with sodium butyrate treatment. (A - B) Each acetyl state of acid-extracted H3 from 0ac to 5ac is represented as a percent of total H3 before/after 60 min treatment of asynchronous MCF-7 cells with 5 mM sodium butyrate. (C) Occupancy of H3K4 methyl states (me0-1-2-3) within each H3 acetyl state (0ac to 5ac) in asynchronous HEK-293 cells. (D) Occupancy of H3K4 methyl states within each H3 acetyl state after butyrate treatment (120 min) in asynchronous HEK-293 cells. (E) Percentage of (K9ac, K14ac, K18ac) proteoforms within 3ac to 5ac acetyl states of H3.1 ± butyrate treatment in HEK-293 cells. N=3 and error bars are SEM for all data. [drawing 3]
MCF-7 breast cancer cells (ATCC HTB-22) were grown in MEM (Gibco) supplemented with 10% fetal bovine serum (VWR), 100 I.U. penicillin, 100 µg/mL streptomycin (Corning), 0.01 mg/mL human recombinant insulin (Gibco), and 5 µg/mL plasmocin (Invivogen) at 37 °C and 5% CO2. HEK-293 (ATCC CRL-1573) was grown in DMEM (Gibco) supplemented with 10% fetal bovine serum (Corning), 100 I.U. penicillin, and 100 µg/mL streptomycin (Gibco) at 37 °C and 5% CO2. Both cell lines were authenticated via STR profiling and confirmed to be Mycoplasma negative.
For mass spectrometric (MS) analysis ± KDAC inhibition, cells were cultured in 150 mm dishes to ~80% confluence and treated with 5 mM sodium butyrate (or equivalent volume of water) in triplicate for 0, 10, 20, 30, 60, 120 min. […] Histones were acid extracted after nuclei isolation as described ([Holt et al., 2021]). Isolated histones were resuspended in 85 µL 5% acetonitrile, 0.2% trifluoroacetic acid (TFA), and resolved by offline high-performance liquid chromatography (HPLC) as described ([Holt et al., 2021]). […] After chromatographic separation and fraction collection, histone H3.1 was selected, diluted in 100 mM ammonium acetate (pH = 4), and digested with Glu-C protease (Roche) at 10:1 protein:enzyme for 1 hr at room temperature prior to mass spectrometric analysis.
The digested samples were diluted to 2 µg/µL. Online HPLC was performed on a U3000 RSLC nano Pro-flow system using a C3 column (Zorbax 300 SB-C3, 5 µm; Agilent). Samples were maintained at 4 °C and 1 µL injected for each analysis using a microliter pickup. […] The column eluant was introduced into an Orbitrap Fusion Lumos mass spectrometer (Thermo Fisher) by nano-electrospray ionization. A static spray voltage of 1900 V and an ion transfer tube temperature of 320 °C were set for the source.
A Fusion Lumos mass spectrometer was used to generate MS data. The 9th charge state of histone H3 was targeted for analysis. MS1 analysis was acquired in the orbitrap with a normal mass range and a 60 k resolution setting in positive ion mode. An Automatic Gain Control (AGC) target of 5.0E5 with a 200 ms maximum injection time, three microscans, and a scan range of 585–640 m/z was used to identify desired ions for fragmentation. MS2 acquisition was performed in both orbitrap and ion trap modes. Both modes used electron transfer dissociation (ETD), a reaction time of 18ms, and an injection time of 200 ms. […]

CCCC(=O)O [sodium butyrate]
3ac including {K9ac, K14ac, K18ac}: 1.6743 Percentage | 4ac including {K9ac, K14ac, K18ac}: 16.6357 Percentage | 5ac including {K9ac, K14ac, K18ac}: 100 Percentage | 3ac including {K9ac, K14ac, K18ac} (column 1 of 3): 1.334 Percentage | 4ac including {K9ac, K14ac, K18ac} (column 1 of 3): 17.3973 Percentage | 5ac including {K9ac, K14ac, K18ac} (column 1 of 3): 100 Percentage | 3ac including {K9ac, K14ac, K18ac} (column 2 of 3): 1.24 Percentage | 4ac including {K9ac, K14ac, K18ac} (column 2 of 3): 17.858 Percentage | 5ac including {K9ac, K14ac, K18ac} (column 2 of 3): 100 Percentage | H3K9me0 (0ac): 48.8895 Percentage | H3K9me1 (0ac): 7.899 Percentage | H3K9me2 (0ac): 29.443 Percentage | H3K9me3 (0ac): 13.7682 Percentage | H3K9me0 (0ac, column 1 of 3): 54.4348 Percentage | H3K9me1 (0ac, column 1 of 3): 4.2113 Percentage | H3K9me2 (0ac, column 1 of 3): 27.4814 Percentage | H3K9me3 (0ac, column 1 of 3): 13.8725 Percentage | H3K9me0 (0ac, column 2 of 3): 51.9841 Percentage | H3K9me1 (0ac, column 2 of 3): 5.137 Percentage | H3K9me2 (0ac, column 2 of 3): 26.9782 Percentage | H3K9me3 (0ac, column 2 of 3): 15.9004 Percentage | H3K9me0 (1ac): 27.5434 Percentage | H3K9me1 (1ac): 15.9623 Percentage | H3K9me2 (1ac): 38.0917 Percentage | H3K9me3 (1ac): 17.0037 Percentage | H3K9me0 (1ac, column 1 of 3): 28.711 Percentage | H3K9me1 (1ac, column 1 of 3): 14.4169 Percentage | H3K9me2 (1ac, column 1 of 3): 39.3301 Percentage | H3K9me3 (1ac, column 1 of 3): 15.8799 Percentage | H3K9me0 (1ac, column 2 of 3): 28.8744 Percentage | H3K9me1 (1ac, column 2 of 3): 14.4284 Percentage | H3K9me2 (1ac, column 2 of 3): 38.0038 Percentage | H3K9me3 (1ac, column 2 of 3): 16.6818 Percentage | H3K9me0 (2ac): 27.9258 Percentage | H3K9me1 (2ac): 21.3235 Percentage | H3K9me2 (2ac): 37.139 Percentage | H3K9me3 (2ac): 9.818 Percentage | H3K9me0 (2ac, column 1 of 3): 28.9582 Percentage | H3K9me1 (2ac, column 1 of 3): 21.0866 Percentage | H3K9me2 (2ac, column 1 of 3): 35.8684 Percentage | H3K9me3 (2ac, column 1 of 3): 10.0575 Percentage | H3K9me0 (2ac, column 2 of 3): 26.6449 Percentage | H3K9me1 (2ac, column 2 of 3): 22.0491 Percentage | H3K9me2 (2ac, column 2 of 3): 35.8906 Percentage | H3K9me3 (2ac, column 2 of 3): 10.993 Percentage | H3K9me0 (3ac): 21.6496 Percentage | H3K9me1 (3ac): 12.8486 Percentage | H3K9me2 (3ac): 25.9132 Percentage | H3K9me3 (3ac): 9.297 Percentage | H3K9me0 (3ac, column 1 of 3): 21.2886 Percentage | H3K9me1 (3ac, column 1 of 3): 12.9304 Percentage | H3K9me2 (3ac, column 1 of 3): 26.508 Percentage | H3K9me3 (3ac, column 1 of 3): 10.2618 Percentage | H3K9me0 (3ac, column 2 of 3): 21.713 Percentage | H3K9me1 (3ac, column 2 of 3): 11.1466 Percentage | H3K9me2 (3ac, column 2 of 3): 27.8034 Percentage | H3K9me3 (3ac, column 2 of 3): 10.4504 Percentage | H3K9me0 (4ac): 4.833 Percentage | H3K9me1 (4ac): 7.36 Percentage | H3K9me2 (4ac): 8.881 Percentage | H3K9me3 (4ac): 1.604 Percentage | H3K9me0 (4ac, column 1 of 3): 5.043 Percentage | H3K9me1 (4ac, column 1 of 3): 6.813 Percentage | H3K9me2 (4ac, column 1 of 3): 10.053 Percentage | H3K9me3 (4ac, column 1 of 3): 3.009 Percentage | H3K9me0 (4ac, column 2 of 3): 4.13 Percentage | H3K9me1 (4ac, column 2 of 3): 7.856 Percentage | H3K9me2 (4ac, column 2 of 3): 9.753 Percentage | H3K9me3 (4ac, column 2 of 3): 2.246 Percentage | H3K9me0 (5ac): 0 Percentage | H3K9me1 (5ac): 0 Percentage | H3K9me2 (5ac): 0 Percentage | H3K9me3 (5ac): 0 Percentage | H3K9me0 (5ac, column 1 of 3): 0 Percentage | H3K9me1 (5ac, column 1 of 3): 0 Percentage | H3K9me2 (5ac, column 1 of 3): 0 Percentage | H3K9me3 (5ac, column 1 of 3): 0 Percentage | H3K9me0 (5ac, column 2 of 3): 0 Percentage | H3K9me1 (5ac, column 2 of 3): 0 Percentage | H3K9me2 (5ac, column 2 of 3): 0 Percentage | H3K9me3 (5ac, column 2 of 3): 0 Percentage | H3K9me3 on hyperacetylated H3 proteoforms, in words (HEK-293, ± butyrate): H3K9me3 did not accumulate with hyperacetylated H3 proteoforms | {K9ac, K14ac, K18ac} in 5ac proteoforms, in words (HEK-293, ± butyrate): all penta-acetylated (5ac) H3 proteoforms consisted of acetylation at H3K9, K14, and K18 at minimum
